We go through 13 compounds from patent publication US11530222B2, “Substituted pyrrolopyrimidine and pyrazolopyrimidine as Bruton's tyrosine kinase (BTK) degraders” (ACCUTAR BIOTECHNOLOGY INC., priority 2021, dated 2022).

Common to all, as to type: cell-based
Test [1] deals with T1, BTK (Homo sapiens, UniProt Q06187).
T1 construct: BTK Degradative Activity of Exemplary Compounds of the Present Disclosure in a RAMOS Cell Line; host or cells: RAMOS
Description: BTK degradative activity in a RAMOS cell line (Western blot). The settings on record: 6 hours after administration, read-out: RAMOS BTK Degradation DC50. Put shortly:
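Ramos cells in RPMI with 10% FBS were treated with compound in DMSO at various concentrations for 6 h at 37 °C. BTK was measured by Western blot against GAPDH with infrared fluorescent detection and band quantification. DC50 is the concentration at which 50% of BTK is degraded.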
On the technique in general: In western blotting, separated proteins are transferred to a membrane and probed.

Test [2] has as its system REC-1 cells. Description: Growth inhibitory activity in BTK-dependent REC-1 cell line (CellTiter-Glo). The settings on record: Homo sapiens, Rec1, 144 h, 6 days after administration, read-out: REC1 Cellular Grwoth Inhibition IC50. The procedure:
(§1) REC-1 (ATCC) and REC-1 BTK^C481S cells were plated in 96-well plates at 8,000 cells/well in 90 ul of RPMI growth medium containing 10% heat-inactivated FBS and 1× Penicillin Streptomycin, and then incubated at 37° C. overnight. The following day, the test compound was administered to the cells by using 10× compound stock solution prepared in growth medium at various concentrations. After administration of the compound, cells were then incubated at 37° C. for 6 days. Before CellTiter-Glo assay, the plates were equilibrated at room temperature for approximately 10 minutes. 100 ul of CellTiter-Glo® Reagent (Promega) was added to each well. The plates were then incubated at room temperature for 10 minutes and luminescence was recorded by EnSpire plate reader (PerkinElmer).
(§2) The GI50 values (i.e., the concentration of test compound at which 50% of cell growth are inhibited) were calculated. A designation of “A” corresponds to a […] value less than 20 nM. A designation of “B” corresponds to a […] value greater than or equal to 20 nM and less than 200 nM. A designation of “C” corresponds to a […] value greater than or equal to 200 nM.
(ATP-based viability assays read luminescence as a measure of living cells.)

In test [3] the test system is REC-1 BTK^C481S cells. Description: Growth inhibitory activity in REC-1 BTK^C481S cell line (CellTiter-Glo). The following applies: Homo sapiens, Rec1, 144 h, 6 days after administration, read-out: REC1 BTK^C481S Cellular Grwoth Inhibition IC50. Here is the method:
The BTK gene in REC-1 cell line (ATCC) was edited by the CRISPR-Cas9 technology to create a C to S point mutation at residue 481 of BTK protein. For gene editing, first, gRNA complex was prepared with Alt-R CRISPR-Cas9 tracrRNA and crRNA BTK^C481S (5′-[…]-3′) (IDT-Integrated DNA Technologies), and then BTK^C481S ribonucleoprotein (RNP) complex was prepared with gRNA complex and Alt-R S.p. Cas9 Nuclease V3 (IDT-Integrated DNA Technologies). Next, 1×10^5 REC-1 cells were electroporated with BTK^C481S RNP complex, Alt-R Cas9 Electroporation Enhancer and BTKC481S Ultramer DNA Oligo (5′-[…] […]-3′) (IDT-Integrated DNA Technologies) using Neon Transfection System (Thermo Fisher) under the condition of 1400 V, 10 ms, 3 pulses. Cells were then plated in a 96-well plate for 10 days and selected with 10 nM Ibrutinib for 5 passages. C481S mutation of BTK was further validated by Sanger Sequencing using gDNA extracted from these cells.
as §1, §2

T1 sequence (Q06187 whole entry): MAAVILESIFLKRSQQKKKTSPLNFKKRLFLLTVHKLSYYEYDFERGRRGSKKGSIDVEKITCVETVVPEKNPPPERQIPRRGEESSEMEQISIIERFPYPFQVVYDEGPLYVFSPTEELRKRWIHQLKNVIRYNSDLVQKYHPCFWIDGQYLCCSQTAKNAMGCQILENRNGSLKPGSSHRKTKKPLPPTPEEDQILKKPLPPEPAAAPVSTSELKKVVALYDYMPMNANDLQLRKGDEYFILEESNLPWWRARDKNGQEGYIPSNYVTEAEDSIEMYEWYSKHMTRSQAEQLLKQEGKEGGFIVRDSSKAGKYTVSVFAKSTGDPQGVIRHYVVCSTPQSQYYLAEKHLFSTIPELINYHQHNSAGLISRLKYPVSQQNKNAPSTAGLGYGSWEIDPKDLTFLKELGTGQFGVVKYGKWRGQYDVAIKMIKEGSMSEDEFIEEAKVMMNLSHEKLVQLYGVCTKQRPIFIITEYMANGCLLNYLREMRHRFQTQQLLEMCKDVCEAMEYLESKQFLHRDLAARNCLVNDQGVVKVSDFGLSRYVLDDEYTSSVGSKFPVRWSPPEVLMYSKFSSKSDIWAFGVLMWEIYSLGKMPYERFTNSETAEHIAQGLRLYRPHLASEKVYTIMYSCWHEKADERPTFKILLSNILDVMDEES

On to `COc1ccc(F)cc1C(=O)NCc1ccc(-c2nn(-c3ccc(N4CCC(CN5CCN(c6ccc7c(c6)CN([C@H]6CCC(=O)NC6=O)C7=O)CC5)CC4)c(F)c3)c3ncnc(N)c23)cc1` [Compound 49, (S)—N-(4-(4-amino-1-(4-(4-((4-(2-(2,6-dioxopiperidin-3-yl)-1-oxoisoindolin-5-yl)piperazin-1-yl)methyl)piperidin-1-yl)-3-fluorophenyl)-1H-pyrazolo[3,4-d]pyrimidin-3-yl)benzyl)-5-fluoro-2-methoxybenzamide], for which, in test [1], the DC50 was below 10 nM. In addition, the IC50 in test [2] and in test [3] was below 20 nM in each case.
Take `COc1ccc(F)cc1C(=O)NCc1ccc(-c2nn(-c3ccc(N4CCC(CN5CCN(c6ccc7c(c6)CN([C@H]6CCC(=O)NC6=O)C7=O)CC5)CC4)nc3)c3ncnc(N)c23)cc1` [Compound 59, (S)—N-(4-(4-amino-1-(6-(4-((4-(2-(2,6-dioxopiperidin-3-yl)-1-oxoisoindolin-5-yl)piperazin-1-yl)methyl)piperidin-1-yl)pyridin-3-yl)-1H-pyrazolo[3,4-d]pyrimidin-3-yl)benzyl)-5-fluoro-2-methoxybenzamide]: the IC50 in test [2] and in test [3] was below 20 nM in each case.
`COc1ccc(F)cc1C(=O)NCc1ccc(-c2nn(C3CCN(C(=O)c4ccc(CN5CCN(c6ccc7c(c6)CN([C@H]6CCC(=O)NC6=O)C7=O)CC5)cc4)C3)c3ncnc(N)c23)cc1` (some centres unmarked) [Compound 63]: the DC50 in test [1] was below 10 nM. The IC50 in test [2] is 20 to 200 nM.
For `COc1ccc(F)cc1C(=O)NCc1ccc(-c2nn(C3CCN(C(=O)CCCCCN4CCN(c5ccc6c(c5)CN([C@H]5CCC(=O)NC5=O)C6=O)CC4)C3)c3ncnc(N)c23)cc1` (stereo partly drawn) [Compound 64, N-(4-(4-amino-1-(1-(6-(4-(2-((S)-2,6-dioxopiperidin-3-yl)-1-oxoisoindolin-5-yl)piperazin-1-yl)hexanoyl)pyrrolidin-3-yl)-1H-pyrazolo[3,4-d]pyrimidin-3-yl)benzyl)-5-fluoro-2-methoxybenzamide], the 50% degradation concentration (DC50) in test [1] is below 10 nM. Further, the IC50 in test [2] fell in the range of 20 to 200 nM.
`COc1ccc(F)cc1C(=O)NCc1ccc(-c2nn(-c3ccc(N4CCC(CN5CCN(c6ccc7c(c6)CN([C@H]6CCC(=O)NC6=O)C7=O)CC5)C4)c(F)c3)c3ncnc(N)c23)cc1` (stereo partly drawn) [Compound 65, N-(4-(4-amino-1-(4-(3-((4-(2-((S)-2,6-dioxopiperidin-3-yl)-1-oxoisoindolin-5-yl)piperazin-1-yl)methyl)pyrrolidin-1-yl)-3-fluorophenyl)-1H-pyrazolo[3,4-d]pyrimidin-3-yl)benzyl)-5-fluoro-2-methoxybenzamide]: the DC50 in test [1] was below 10 nM. Besides, the concentration for half-maximal inhibition (IC50) in test [2] and in test [3] was below 20 nM in each case.
With `COc1ccc(F)cc1C(=O)NCc1ccc(-c2nn(-c3ccc(N4CCC(CN5CCN(c6ccc7c(c6)CN([C@H]6CCC(=O)NC6=O)C7=O)CC5)C4)nc3)c3ncnc(N)c23)cc1` (stereo partly drawn) [Compound 66, N-(4-(4-amino-1-(6-(3-((4-(2-((S)-2,6-dioxopiperidin-3-yl)-1-oxoisoindolin-5-yl)piperazin-1-yl)methyl)pyrrolidin-1-yl)pyridin-3-yl)-1H-pyrazolo[3,4-d]pyrimidin-3-yl)benzyl)-5-fluoro-2-methoxybenzamide], the DC50 in test [1] is below 10 nM. The half-inhibitory concentration (IC50) in test [2] and in test [3] was below 20 nM in each case.
With `COc1ccc(F)cc1C(=O)NCc1ccc(-c2nn(-c3ccc(N4CC(CN5CCN(c6ccc7c(c6)CN([C@H]6CCC(=O)NC6=O)C7=O)CC5)C4)c(F)c3)c3ncnc(N)c23)cc1` [Compound 85, (S)—N-(4-(4-amino-1-(4-(3-((4-(2-(2,6-dioxopiperidin-3-yl)-1-oxoisoindolin-5-yl)piperazin-1-yl)methyl)azetidin-1-yl)-3-fluorophenyl)-1H-pyrazolo[3,4-d]pyrimidin-3-yl)benzyl)-5-fluoro-2-methoxybenzamide], the DC50 in test [1] is below 10 nM. In addition, the IC50 in test [2] and in test [3] was below 20 nM each time.
Turning to `COc1ccc(F)cc1C(=O)NCc1ccc(-c2nn(C3CCN(c4ccc(CN5CCN(c6ccc7c(c6)CN([C@H]6CCC(=O)NC6=O)C7=O)CC5)cn4)C3)c3ncnc(N)c23)cc1` (stereo partly drawn) [Compound 92, N-(4-(4-amino-1-(1-(5-((4-(2-((S)-2,6-dioxopiperidin-3-yl)-1-oxoisoindolin-5-yl)piperazin-1-yl)methyl)pyridin-2-yl)pyrrolidin-3-yl)-1H-pyrazolo[3,4-d]pyrimidin-3-yl)benzyl)-5-fluoro-2-methoxybenzamide], the DC50 in test [1] is below 10 nM. In test [2], the half-inhibitory concentration (IC50) was 20 to 200 nM.
As to `COc1ccc(F)cc1C(=O)NCc1ccc(-c2nn(-c3ccc(N4CC[C@H](CN5CCN(c6ccc7c(c6)CN([C@H]6CCC(=O)NC6=O)C7=O)CC5)C4)nc3)c3ncnc(N)c23)cc1` [Compound 93, N-(4-(4-amino-1-(6-((R)-3-((4-(2-((S)-2,6-dioxopiperidin-3-yl)-1-oxoisoindolin-5-yl)piperazin-1-yl)methyl)pyrrolidin-1-yl)pyridin-3-yl)-1H-pyrazolo[3,4-d]pyrimidin-3-yl)benzyl)-5-fluoro-2-methoxybenzamide], the 50% degradation concentration (DC50) in test [1] is below 10 nM. Moreover, the IC50 in test [2] and in test [3] was below 20 nM in each case.
For the compound `COc1ccc(F)cc1C(=O)NCc1ccc(-c2nn(-c3ccc(N4CC[C@@H](CN5CCN(c6ccc7c(c6)CN([C@H]6CCC(=O)NC6=O)C7=O)CC5)C4)nc3)c3ncnc(N)c23)cc1` [Compound 94, N-(4-(4-amino-1-(6-((S)-3-((4-(2-((S)-2,6-dioxopiperidin-3-yl)-1-oxoisoindolin-5-yl)piperazin-1-yl)methyl)pyrrolidin-1-yl)pyridin-3-yl)-1H-pyrazolo[3,4-d]pyrimidin-3-yl)benzyl)-5-fluoro-2-methoxybenzamide], the DC50 in test [1] was below 10 nM. Further, the IC50 in test [2] and in test [3] was below 20 nM in each case.
Turning to `COc1ccc(F)cc1C(=O)NCc1ccc(-c2nn(-c3ccc(N4CC[C@H](CN5CCN(c6ccc7c(c6)CN([C@H]6CCC(=O)NC6=O)C7=O)CC5)C4)c(F)c3)c3ncnc(N)c23)cc1` [Compound 95, N-(4-(4-amino-1-(4-((R)-3-((4-(2-((S)-2,6-dioxopiperidin-3-yl)-1-oxoisoindolin-5-yl)piperazin-1-yl)methyl)pyrrolidin-1-yl)-3-fluorophenyl)-1H-pyrazolo[3,4-d]pyrimidin-3-yl)benzyl)-5-fluoro-2-methoxybenzamide], the half-maximal degradation concentration (DC50) in test [1] was below 10 nM. In addition, the half-maximal inhibitory concentration (IC50) in test [2] and in test [3] was below 20 nM in each case.
Take `COc1ccc(F)cc1C(=O)NCc1ccc(-c2nn(-c3ccc(N4CC[C@@H](CN5CCN(c6ccc7c(c6)CN([C@H]6CCC(=O)NC6=O)C7=O)CC5)C4)c(F)c3)c3ncnc(N)c23)cc1` [Compound 96, N-(4-(4-amino-1-(4-((S)-3-((4-(2-((S)-2,6-dioxopiperidin-3-yl)-1-oxoisoindolin-5-yl)piperazin-1-yl)methyl)pyrrolidin-1-yl)-3-fluorophenyl)-1H-pyrazolo[3,4-d]pyrimidin-3-yl)benzyl)-5-fluoro-2-methoxybenzamide]: the half-maximal degradation concentration (DC50) in test [1] was below 10 nM. The IC50 in test [2] and in test [3] was below 20 nM throughout.
Regarding `COc1ccc(F)cc1C(=O)NCc1ccc(-c2nn(-c3ccc(N4CC(CN5CCN(c6ccc7c(c6)CN([C@H]6CCC(=O)NC6=O)C7=O)CC5)C4)nc3)c3ncnc(N)c23)cc1` [Compound 97, (S)—N-(4-(4-amino-1-(6-(3-((4-(2-(2,6-dioxopiperidin-3-yl)-1-oxoisoindolin-5-yl)piperazin-1-yl)methyl)azetidin-1-yl)pyridin-3-yl)-1H-pyrazolo[3,4-d]pyrimidin-3-yl)benzyl)-5-fluoro-2-methoxybenzamide], the half-maximal degradation concentration (DC50) in test [1] was below 10 nM. The IC50 in test [2] and in test [3] was below 20 nM each time.

As a reminder, the DC50 is the concentration at which degradation of the target reaches its halfway point. One may read the IC50 as the concentration that gives 50% inhibition.
